# Earlier results in patent US20210338635A1, “Dosage Regimen for the Treatment of Multiple Sclerosis with a S1P Receptor Modulator” (Argentum Pharmaceuticals LLC, priority 2020, published 2021).
# Tests used:
# [1] = administration of 1.25 mg; healthy patients; treatment initiation
# [2] = humans; relapsing multiple sclerosis, oral
SMILES,decrease in heart rate [1],efficacy in the treatment of multiple sclerosis [2]
"CCc1cc(/C(C)=N/OCc2ccc(C3CCCCC3)c(C(F)(F)F)c2)ccc1CN1CC(C(=O)O)C1 [BAF-312, 1-({4-[(1E)-1-({[4-Cyclohexyl-3(trifluoromethyl)phenyl]methoxy}imino)ethyl]-2-ethylphenyl}methyl)azetidine-3-carboxylic acid]",approximately 8 beets/min,
CCCCCCCCc1ccc(CCC(N)(CO)CO)cc1 [FTY720],,efficacy in the treatment of multiple sclerosis has been shown in humans
